Source: patent US7772228B2, “Method for treatment of bacterial infections with once or twice-weekly administered rifalazil” (priority 1998, dated 2010)
Values after ≈ are worked out from the molar mass of the structure shown. Where two headings read alike, the source gives them in different places.

What was measured:
in vivo = test: in vivo; parameters: species or system rats; settings: rat
Experimental: (§1) In chronic studies with dogs and rats, the no-observed-adverse-effect-level was 1000 mg/kg. […] Significant partitioning of drug-related radioactivity to the formed elements of the blood was observed. […] The urine contained a small amount (5.5%) of radioactivity.
Pharmacokinetic parameters were determined following single and multiple doses in rats and dogs. The doses in rats and dogs were based upon those utilized in the single and multiple-dose toxicology studies. In addition, the absorption, distribution, metabolism, and elimination of rifalazil was studied in rats and dogs. These studies confirmed prior findings that there are species differences vis-a-vis sensitivity to and response to treatment with rifalazil.

[1] = tested on: M. tuberculosis strain Erdman; settings: cited from earlier work
[2] = tested on: Chlamydia pneumoniae strain TW-l 83; test: Sensitivity testing in cell cultures; assay type: cell-based
Experimental: Sensitivity testing was conducted in cell cultures against Chlamydia pneumoniae strain TW-l 83 using rifalazil, clanthromycin, or azithromycin. […] The in vivo testing of rifalazil used a mouse model infected with Chlamydia pneumoniae strain AR-39. […] All control animals remained infected.

[3] = tested on: M. tuberculosis in human macrophages; test: MIC and MBC against intracellular bacteria in human macrophages; assay type: cell-based, Mycobacterium tuberculosis
[4] = Clinical signs, general behavior and spontaneous locomotor activity of mice; assay type: in vivo
Experimental: Pharmacological studies were undertaken in mice, rats, and dogs, and in isolated guinea pig ileum.
Rifalazil had little effect on the clinical signs or general behavior of mice following oral administration of 100, 300, or 1,000 mg/kg. Rifalazil had no effect on the spontaneous locomotor activity of mice at 100 and 300 mg/kg.

M. tuberculosis [5] = settings: cited from earlier work
clinical [6] = settings: human, in vivo
Description: (§2) Pharmacokinetic analyses associated with clinical trials involved measurement of concentrations of rifalazil in plasma and/or whole blood of subjects participating in the four Phase 1 studies using high performance liquid chromatography.
Attempts were made to analyze the multiple-dose pharmacokinetics using a linear 3-compartment model, and a 3-compartment model incorporating enzyme induction. However, neither multi-compartmental model accurately characterized the pharmacokinetic parameters in all subjects. Daily dosing and related early terminations due to adverse reactions, differences in bioavailability from a food effect, and nonconnective dose administration further complicated these analyses. Therefore, only noncompartmental pharmacokinetic parameters were derived for clinical trials 003 and 004.

[7] = Multiple-dose oral toxicology studies in dogs; assay type: in vivo
Experimental: as §1
Single-dose and multiple-dose oral toxicology studies were conducted in mice, rats, and dogs. In addition, to maximize systemic exposure, single-dose intravenous (IV) and intraperitoneal (IP) studies were conducted in rats and mice. Four-week and 13-week oral studies in dogs and rats and 26-week oral studies in rats included standard clinical measurements and physical and pathological evaluations.

clinical [8] = settings: human, in vivo; remark: listed apart in the source
Experimental: A total of four clinical trials have been conducted to study the effects of rifalazil in humans. Two single-dose Phase 1 clinical trials (001) and (002) assessed the safety and pharmacokinetics of rifalazil in normal, healthy, fasted subjects. In the 001 trial, a single 300 mg dose of rifalazil was administered to six subjects. In the 002 trial, single doses of 30 mg or 100 mg were administered to eight subjects each. The results of these studies indicated a substantially higher incidence of adverse reactions at the 300 mg dose compared to the 30 mg or 100 mg dose.
The pharmacokinetics of rifalazil in whole blood in these two clinical trials was similar to that of rifalazil pharmacokinetics in plasma. […] Therefore, future pharmacokinetic analyses focused on rifalazil concentrations in plasma. Table 7 summarizes noncompartmental parameters derived from plasma concentrations in fasted subjects following administration of single doses of 30 mg, 100 mg, or 300 mg of rifalazil in these studies.
as §2

[9] = tested on: M. tuberculosis in human macrophages; settings: intracellular, cited from earlier work
M. tuberculosis [10] = settings: eight weeks treatment; cited from earlier work
[11] = Ref. 1, BACTEC, 30 strains (rif^r and rif^s)
[12] = Ref. 2, BACTEC, 24 strains (rif^r and rif^s)
[13] = Ref. 3, BACTEC, 13 strains (rif^s)
[14] = Ref. 4, BACTEC, 11 strains (rif^r)
[15] = Ref. 5, BACTEC, 20 strains (rif^s)
[16] = thirty clinical isolates, BACTEC

## CO[C@H]1/C=C/O[C@@]2(C)Oc3c(C)c(O)c4c(=O)c(c5oc6cc(N7CCN(CC(C)C)CC7)cc(O)c6nc-5c4c3C2=O)NC(=O)/C(C)=C\C=C\[C@H](C)[C@H](O)[C@@H](C)[C@@H](O)[C@@H](C)[C@H](OC(C)=O)[C@@H]1C [Rifalazil, 3′-hydroxy-5′-(4-isobutyl-1-piperazinyl)benzoxasinorifamycin]
In vivo; female
  CL/F: 3.62 mL/min/kg
In vivo; male
  CL/F: 3.07 mL/min/kg
In vivo
  half-life: 12.5 h
  radioactivity in the urine: 5.5%
  radioactivity recovered in the feces: 84%
In vivo; 3 mg/kg
  bioavailability: 30 to 40%
[1]; 20 mg/kg, five times per week for four weeks
  reduction of bacterial load in lungs and spleens, comparison of drugs: reduced bacterial loads to a significantly greater extent than the other two drugs
[1]; four weeks treatment
  activity against organisms in lungs, comparison of treatments: most active single-agent
  cell counts in lungs compared to early controls: significantly reduced cell counts in lungs
  cell counts in lungs compared to late controls: reduced cell counts in lungs
[1]; rifalazil 20 mg/kg, PZA 150 mg/kg, four weeks
  CFUs in the spleen: most active single-agent
[2]
  fold more potent than clanthromycin: 300 fold
  fold more potent than erythromycin: 1500 fold
[3]
  MIC and MBC fold lower than rifampin: at least 10 fold
[4]; 1000 mg/kg
  spontaneous locomotor activity: increase in spontaneous locomotor activity for one hour
[4]; 100 and 300 mg/kg
  spontaneous locomotor activity: no effect
[4]; oral 100, 300, or 1,000 mg/kg
  clinical signs or general behavior: little effect
M. tuberculosis [5]; [11]
  MIC90: 2.0 µg/mL (≈ 2.13 µM)
  MIC Range: ≦0.002 to 4.0^ μg/mL
M. tuberculosis [5]; [12]
  MIC90: 4.0 µg/mL (≈ 4.25 µM)
  MIC Range: 0.0009 to 4.0 µg/mL
M. tuberculosis [5]; [13]
  MIC90: 0.0156 µg/mL (≈ 0.0166 µM)
  MIC Range: 0.0009 to 0.125 µg/mL
M. tuberculosis [5]; [14]
  MIC90: 4.0 µg/mL (≈ 4.25 µM)
  MIC Range: 0.062 to 4.0 µg/mL
M. tuberculosis [5]; [15]
  MIC90: <0.125 µg/mL
  MIC Range: <0.125 µg/mL
M. tuberculosis [5]; Ref. 6, BACTEC, 20 strains (rif^r)
  MIC90: >2.0 µg/mL
M. tuberculosis [5]; reference strain H37Rv, BACTEC
  MIC: 0.004 µg/mL (≈ 0.00425 µM)
M. tuberculosis [5]; reference strain Kurono, BACTEC
  MIC: 0.002 µg/mL (≈ 0.00213 µM)
M. tuberculosis [5]; rifampin-sensitive Mycobacterium tuberculosis
  MIC90: 0.0156 µg/mL (≈ 0.0166 µM)
M. tuberculosis [5]; [16]
  MIC50 50% inhibition: 0.016 µg/mL (≈ 0.017 µM)
  MIC90 90% inhibition: 2.0 µg/mL (≈ 2.13 µM)
Clinical [6]
  Half-life distribution t½ (mean): 17.26 h
Clinical [6]; Half-life distribution t½ (mean)
  half-life: 10.1 h
Clinical [6]; Tmax (mean)
  Tmax: 5.25 h
[7]; 1,000 mg/kg, four weeks daily dosing
  liver weight: slight increase in liver weight
[7]; 13-week study, daily oral
  no observable adverse effect level: 300 mg/kg
[7]; chronic studies, dogs
  no-observed-adverse-effect-level: 1000 mg/kg
[7]; multiple-dose oral, dogs
  doses at which hematological changes were noted: > 30 mg/kg
Clinical [8]
  plasma to blood ratio: 1.6:1
Clinical [8]; 30 mg
  AUC(0-inf): 505 ng·h/mL
  AUC(0-t): 197 ng·h/mL
  Cmax: 17.8 ng/mL
  Tmax: 3.1 h
  half-life: 48.7 h
Clinical [8]; 100 mg
  AUC(0-inf): 1540 ng·h/mL
  AUC(0-t): 800 ng·h/mL
  Cmax: 53.6 ng/mL
  Tmax: 4 h
  half-life: 43.1 h
Clinical [8]; 300 mg
  AUC(0-inf): 4330 ng·h/mL
  AUC(0-t): 1450 ng·h/mL
  Cmax: 116 ng/mL
  Tmax: 3 h
  half-life: 206 h
[9]; strain Atencio
  MBC: 0.008 µg/mL (≈ 0.0085 µM)
  MIC: 0.004 µg/mL (≈ 0.00425 µM)
[9]; strain Erdman
  MBC: 0.008 µg/mL (≈ 0.0085 µM)
  MIC: 0.008 µg/mL (≈ 0.0085 µM)
[9]; strain H37Rv
  MBC: 0.016 µg/mL (≈ 0.017 µM)
  MIC: 0.004 µg/mL (≈ 0.00425 µM)
M. tuberculosis [10]
  gross lung lesions, bacterial loads, survival time versus rifampin: outperformed rifampin in treating the disease
